Laboratory results published in patent publication US9624229B2, “Pyrimidine-2-amine compounds and their use as inhibitors of JAK kinases” (Rigel Pharmaceuticals, Inc., priority 2008, dated 2017).

Target: Ba/F3 V617F cells (Homo sapiens, UniProt O60674, V617F, cells depend on it)
Assay: Proliferation assay (Cell Titer-Glo, 72 h) utilizing Ba/F3 V617F cells
Assay type: cell-based, mouse
Conditions: Ba/F3 V617F cells, proliferation, level of activity to inhibit JAK2, read-out: IC50 (the source's name)
Method: Ba/F3 V617F cells are maintained and plated in RPMI with 10% FBS. Plating density for these cells is 1×10^5 cells/mL.
The cells were resuspended in a corresponding medium at a required cell density (see above). 100μ of cell suspension was added to each well of a flat bottom 96 well white plate. The compound was serially diluted in DMSO from 5 mM in 3-fold dilutions, and then diluted 1:250 in the RPMI 1640 medium containing 5% FBS and pen/strep. 100 μL of resulting 2× compound solution was added per well in duplicate and the cells were allowed to proliferate for 72 hours at 37° C.
Proliferation was measured using Cell Titer-Glo. The substrate was thawed and allowed to come to ambient temperature. After removal of top 100 μL of medium from each well, 100 μL of the premixed Cell Titer-Glo reagent was added to each well. The plates were mixed on an orbital shaker for three minutes to induce lysis and incubated at ambient temperature for an additional five minutes to allow the signal to equilibrate. The Luminescence was read on the Wallac Plate Reader.
The results of the ability of the compounds of the invention to inhibit JAK2 activity, when tested in the above assay utilizing Ba/F3 V617F cells, are shown in the following Tables 2-3 wherein the level of activity (i.e., the IC50) for each compound is indicated in Tables 2-3. The compound numbers in Tables 2-3 refers to the compounds disclosed herein as being prepared by the methods disclosed herein: […]

Chain of Ba/F3 V617F cells (O60674 whole entry V617F): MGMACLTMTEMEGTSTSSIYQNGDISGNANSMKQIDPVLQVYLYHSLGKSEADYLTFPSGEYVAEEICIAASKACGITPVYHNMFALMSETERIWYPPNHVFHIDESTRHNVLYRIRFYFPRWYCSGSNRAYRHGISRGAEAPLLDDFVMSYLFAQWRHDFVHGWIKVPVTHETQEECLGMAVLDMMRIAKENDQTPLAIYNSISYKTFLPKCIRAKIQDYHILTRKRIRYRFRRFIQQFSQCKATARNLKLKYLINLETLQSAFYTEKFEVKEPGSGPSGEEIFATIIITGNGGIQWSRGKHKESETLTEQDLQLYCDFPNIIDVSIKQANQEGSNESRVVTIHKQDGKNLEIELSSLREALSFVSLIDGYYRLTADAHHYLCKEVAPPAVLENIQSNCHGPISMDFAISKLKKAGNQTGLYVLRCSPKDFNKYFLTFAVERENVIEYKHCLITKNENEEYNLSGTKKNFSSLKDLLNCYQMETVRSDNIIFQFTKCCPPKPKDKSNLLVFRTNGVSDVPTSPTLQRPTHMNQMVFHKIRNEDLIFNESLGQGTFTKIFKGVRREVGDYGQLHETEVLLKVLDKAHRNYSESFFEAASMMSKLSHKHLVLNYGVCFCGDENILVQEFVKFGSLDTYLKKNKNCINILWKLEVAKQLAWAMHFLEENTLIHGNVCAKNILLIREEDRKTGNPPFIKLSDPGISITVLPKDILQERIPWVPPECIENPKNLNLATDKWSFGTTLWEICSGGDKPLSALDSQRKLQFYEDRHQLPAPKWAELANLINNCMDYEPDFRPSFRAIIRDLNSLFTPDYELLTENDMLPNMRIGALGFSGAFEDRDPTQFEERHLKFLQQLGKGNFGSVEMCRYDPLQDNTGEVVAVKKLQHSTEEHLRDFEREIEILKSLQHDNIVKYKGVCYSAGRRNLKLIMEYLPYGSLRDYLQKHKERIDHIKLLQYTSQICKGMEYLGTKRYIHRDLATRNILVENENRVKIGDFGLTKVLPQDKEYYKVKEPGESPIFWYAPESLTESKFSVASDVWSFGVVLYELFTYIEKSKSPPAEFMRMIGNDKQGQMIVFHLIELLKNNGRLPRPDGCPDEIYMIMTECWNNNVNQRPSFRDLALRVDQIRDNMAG

| Compound | GI50 |
| --- | --- |
| Cc1cc(-c2ccnc(Nc3ccc(N4C[C@@H]5C[C@H]4CN5C)c(F)c3)n2)cnc1N1CCOCC1 [compound 59, 4-(5-methyl-6-(morpholin-4-yl)pyridin-3-yl)-N-(3-fluoro-4-((1S,4S)-5-methyl-2,5-diazabicyclo[2.2.1]heptan-2-yl)phenyl)pyrimidin-2-amine] | < 1 µM |
| Cc1cc(Nc2nccc(-c3cnc(N4CCOCC4)c(C)c3)n2)ccc1N1C[C@@H]2C[C@H]1CN2C [compound 60, 4-(5-methyl-6-(morpholin-4-yl)pyridin-3-yl)-N-(3-methyl-4-((1S,4S)-5-methyl-2,5-diazabicyclo[2.2.1]heptan-2-yl)phenyl)pyrimidin-2-amine] | < 1 µM |
| Cc1cc(Nc2ncc(C)c(-c3ccc(N4CCOCC4)nc3)n2)ccc1N1C[C@@H]2C[C@H]1CN2C [compound 67, 5-methyl-4-(6-(morpholin-4-yl)pyridin-3-yl)-N-(3-methyl-4-((1S,4S)-5-methyl-2,5-diazabicyclo[2.2.1]heptan-2-yl)phenyl)pyrimidin-2-amine] | < 1 µM |
| Cc1cnc(Nc2ccc(N3C[C@@H]4C[C@H]3CN4C)c(F)c2)nc1-c1ccc(N2CCOCC2)nc1 [compound 68, 5-methyl-4-(6-(morpholin-4-yl)pyridin-3-yl)-N-(3-fluoro-4-((1S,4S)-5-methyl-2,5-diazabicyclo[2.2.1]heptan-2-yl)phenyl)pyrimidin-2-amine] | < 1 µM |
| CN1C[C@@H]2C[C@H]1CN2c1ccc(Nc2nccc(-c3ccc(NCCN4CCOCC4)nc3)n2)cc1 [compound 69, 4-(6-(2-(morpholin-4-yl)ethyl)aminopyridin-3-yl)-N-(4-((1S,4S)-5-methyl-2,5-diazabicyclo[2.2.1]heptan-2-yl)phenyl)pyrimidin-2-amine] | 1 to 10 µM |
| CN1C[C@@H]2C[C@H]1CN2c1ccc(Nc2nccc(-c3ccc(NCCN4CCOCC4)nc3)n2)cc1F [compound 70, 4-(6-(2-(morpholin-4-yl)ethyl)aminopyridin-3-yl)-N-(3-fluoro-4-((1S,4S)-5-methyl-2,5-diazabicyclo[2.2.1]heptan-2-yl)phenyl)pyrimidin-2-amine] | < 1 µM |
| Cc1cc(Nc2nccc(-c3cnc4c(c3)OC(C)(C)C(=O)N4)n2)ccc1N1C[C@H]2C[C@@H]1CN2C [compound 71, 4-(2,2-dimethyl-3-oxo-3,4-dihydro-2H-pyrido[3,2-b][1,4]oxazin-7-yl)-N-(3-methyl-4-((1R,4R)-5-methyl-2,5-diazabicyclo[2.2.1]heptan-2-yl)phenyl)pyrimidin-2-amine] | < 1 µM |
| Cc1cc(Nc2nccc(-c3ccc(N4CCOCC4)nc3)n2)ccc1N1C[C@H]2C[C@@H]1CN2C [compound 72, 4-(6-(morpholin-4-yl)pyridin-3-yl)-N-(3-methyl-4-((1R,4R)-5-methyl-2,5-diazabicyclo[2.2.1]heptan-2-yl)phenyl)pyrimidin-2-amine] | < 1 µM |
| CN1C[C@H]2C[C@@H]1CN2c1ccc(Nc2nccc(-c3cnc4c(c3)OC(C)(C)C(=O)N4)n2)cc1F [compound 73, 4-(2,2-dimethyl-3-oxo-3,4-dihydro-2H-pyrido[3,2-b][1,4]oxazin-7-yl)-N-(3-fluoro-4-((1R,4R)-5-methyl-2,5-diazabicyclo[2.2.1]heptan-2-yl)phenyl)pyrimidin-2-amine] | < 1 µM |
| CN1C[C@H]2C[C@@H]1CN2c1ccc(Nc2nccc(-c3ccc(N4CCOCC4)nc3)n2)cc1F [compound 74, 4-(6-(morpholin-4-yl)pyridin-3-yl)-N-(3-fluoro-4-((1R,4R)-5-methyl-2,5-diazabicyclo[2.2.1]heptan-2-yl)phenyl)pyrimidin-2-amine] | < 1 µM |
| Cc1cc(Nc2nccc(-c3ccc(N4CCOCC4)nc3)n2)ccc1N1CC2(C)CN(C)CC(C)(C1)C2 [compound 75, 4-(6-(morpholin-4-yl)pyridin-3-yl)-N-(3-methyl-4-(1,5,7-trimethyl-3,7-diazabicyclo[3.3.1]nonan-3-yl)phenyl)pyrimidin-2-amine] | < 1 µM |
| Cc1cc(Nc2nccc(-c3ccc(N(C)C)nc3)n2)ccc1N1CC2(C)CN(C)CC(C)(C1)C2 [compound 76, 4-(6-(dimethylamino)pyridin-3-yl)-N-(3-methyl-4-(1,5,7-trimethyl-3,7-diazabicyclo[3.3.1]nonan-3-yl)phenyl)pyrimidin-2-amine] | < 1 µM |
| Cc1cc(Nc2nccc(-c3ccc(NC4CCCCC4)nc3)n2)ccc1N1CC2(C)CN(C)CC(C)(C1)C2 [compound 77, 4-(6-(cyclohexylamino)pyridin-3-yl)-N-(3-methyl-4-(1,5,7-trimethyl-3,7-diazabicyclo[3.3.1]nonan-3-yl)phenyl)pyrimidin-2-amine] | < 1 µM |
| Cc1cc(Nc2nccc(-c3ccc(NC4CCCCC4)nc3)n2)ccc1N1C[C@@H]2C[C@H]1CN2C [compound 78, 4-(6-(cyclohexylamino)pyridin-3-yl)-N-(3-methyl-4-((1S,4S)-5-methyl-2,5-diazabicyclo[2.2.1]heptan-2-yl)phenyl)pyrimidin-2-amine] | < 1 µM |
| CN1C[C@@H]2C[C@H]1CN2c1ccc(Nc2nccc(-c3ccc(NC4CCCCC4)nc3)n2)cc1F [compound 79, 4-(6-(cyclohexylamino)pyridin-3-yl)-N-(3-fluoro-4-((1S,4S)-5-methyl-2,5-diazabicyclo[2.2.1]heptan-2-yl)phenyl)pyrimidin-2-amine] | < 1 µM |
| Cc1cc(Nc2nccc(-c3ccc(NCc4ccccc4)nc3)n2)ccc1N1C[C@@H]2C[C@H]1CN2C [compound 80, 4-(6-(benzylamino)pyridin-3-yl)-N-(3-methyl-4-((1S,4S)-5-methyl-2,5-diazabicyclo[2.2.1]heptan-2-yl)phenyl)pyrimidin-2-amine] | < 1 µM |
| CN1C[C@@H]2C[C@H]1CN2c1ccc(Nc2nccc(-c3ccc(NCc4ccccc4)nc3)n2)cc1F [compound 81, 4-(6-(benzylamino)pyridin-3-yl)-N-(3-fluoro-4-((1S,4S)-5-methyl-2,5-diazabicyclo[2.2.1]heptan-2-yl)phenyl)pyrimidin-2-amine] | < 1 µM |

Same assay, conditions: inhibition of JAK2 activity, proliferation of Ba/F3 V617F cells, read-out: IC50 (the source's name)

| Compound | GI50 |
| --- | --- |
| CC(=O)Nc1ccc(-c2ccnc(Nc3ccc(N4C[C@@H]5C[C@H]4CN5C)nc3)n2)cn1 [compound 55, 4-(6-(methylcarbonylamino)pyridin-3-yl)-N-(6-((1S,4S)-5-methyl-2,5-diazabicyclo[2.2.1]heptan-2-yl)pyridin-3-yl)pyrimidin-2-amine] | 1 to 10 µM |
| CN(C)c1ccc(-c2ccnc(Nc3ccc(N4C[C@@H]5C[C@H]4CN5C)nc3)n2)cc1 [compound 56, 4-(4-(dimethylamino)phenyl)-N-(6-((1S,4S)-5-methyl-2,5-diazabicyclo[2.2.1]heptan-2-yl)pyridin-3-yl)pyrimidin-2-amine] | 1 to 10 µM |
| CC(=O)N1CCN(c2ccc(-c3ccnc(Nc4ccc(N5C[C@@H]6C[C@H]5CN6C)nc4)n3)cn2)CC1 [compound 57, 4-(6-(4-acetylpiperazin-1-yl)pyridin-3-yl)-N-(6-((1S,4S)-5-methyl-2,5-diazabicyclo[2.2.1]heptan-2-yl)pyridin-3-yl)pyrimidin-2-amine] | 1 to 10 µM |
| Cc1cc(-c2ccnc(Nc3ccc(N4C[C@@H]5C[C@H]4CN5C)nc3)n2)cnc1N1CCOCC1 [compound 58, 4-(5-methyl-6-(morpholin-4-yl)pyridin-3-yl)-N-(6-((1S,4S)-5-methyl-2,5-diazabicyclo[2.2.1]heptan-2-yl)pyridin-3-yl)pyrimidin-2-amine] | 1 to 10 µM |
| Cc1cc(Nc2nccc(-c3ccc(N(C)C)nc3)n2)cnc1N1C[C@@H]2C[C@H]1CN2C [compound 61, 4-(6-(dimethylamino)pyridin-3-yl)-N-(5-methyl-6-((1S,4S)-5-methyl-2,5-diazabicyclo[2.2.1]heptan-2-yl)pyridin-3-yl)pyrimidin-2-amine] | < 1 µM |
| Cc1cc(Nc2nccc(-c3ccc(N(C)C)cc3)n2)cnc1N1C[C@@H]2C[C@H]1CN2C [compound 62] | 1 to 10 µM |
| CC(=O)N1CCN(c2ccc(-c3ccnc(Nc4cnc(N5C[C@@H]6C[C@H]5CN6C)c(C)c4)n3)cn2)CC1 [compound 63, 4-(6-(4-acetylpiperazin-1-yl)pyridin-3-yl)-N-(5-methyl-6-((1S,4S)-5-methyl-2,5-diazabicyclo[2.2.1]heptan-2-yl)pyridin-3-yl)pyrimidin-2-amine] | 1 to 10 µM |
| Cc1cc(-c2ccnc(Nc3cnc(N4C[C@@H]5C[C@H]4CN5C)c(C)c3)n2)cnc1N1CCOCC1 [compound 64, 4-(5-methyl-6-(morpholin-4-yl)pyridin-3-yl)-N-(5-methyl-6-((1S,4S)-5-methyl-2,5-diazabicyclo[2.2.1]heptan-2-yl)pyridin-3-yl)pyrimidin-2-amine] | < 1 µM |
| Cc1cc(Nc2nccc(-c3cnc4c(c3)OCCN4C)n2)cnc1N1C[C@@H]2C[C@H]1CN2C [compound 65, 4-(4-methyl-3,4-dihydro-2H-pyrido[3,2-b][1,4]oxazin-7-yl)-N-(5-methyl-6-((1S,4S)-5-methyl-2,5-diazabicyclo[2.2.1]heptan-2-yl)pyridin-3-yl)pyrimidin-2-amine] | < 1 µM |
| Cc1cc(Nc2nccc(-c3ccc(N4CCOCC4)nc3)n2)cnc1N1C[C@@H]2C[C@H]1CN2C [compound 66, 4-(6-(morpholin-4-yl)pyridin-3-yl)-N-(5-methyl-6-((1S,4S)-5-methyl-2,5-diazabicyclo[2.2.1]heptan-2-yl)pyridin-3-yl)pyrimidin-2-amine] | 1 to 10 µM |
